Assays:
[1] = test system: T1, archaeal class C-like β-lactamase; test: nitrocefin hydrolysis, absorbance at […] nm, Michaelis-Menten fit; type: biochemical, Methanosarcina sp.; conditions: room temperature; 4 µM enzyme; 0.05-1.5 mM nitrocefin
T1 construct: gene class C-like beta-lactamase

[2] = target: T2, MetbaB (Methanosarcina β-lactamase class B) (Methanosarcina barkeri, UniProt A0A0E3SJT9); test: inhibition of nitrocefin hydrolysis, absorbance at […] nm; type: biochemical; conditions: substrate nitrocefin; 1 µg/mL sulbactam; 30 min
T2 construct: gene MSBR3_0040
T2 sequence (A0A0E3SJT9 1-213 limits assumed): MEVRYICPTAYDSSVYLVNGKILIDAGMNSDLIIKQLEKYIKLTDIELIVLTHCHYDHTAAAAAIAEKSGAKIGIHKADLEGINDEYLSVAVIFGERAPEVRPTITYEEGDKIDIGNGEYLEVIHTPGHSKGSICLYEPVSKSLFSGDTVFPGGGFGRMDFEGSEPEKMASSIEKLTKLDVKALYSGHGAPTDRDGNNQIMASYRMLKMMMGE

| Structure (SMILES) | Km [1] [µM] | inhibition at 1 μg/mL [2] |
| --- | --- | --- |
| O=C(Cc1cccs1)N[C@@H]1C(=O)N2C(C(=O)O)=C(/C=C/c3ccc([N+](=O)[O-])cc3[N+](=O)[O-])CS[C@H]12 [nitrocefin] | 584 | – |
| CC1(C)[C@H](C(=O)O)N2C(=O)C[C@H]2S1(=O)=O [sulbactam] | – | in the presence of sulbactam, no degradation of the nitrocefin β-lactam could be detected |
